In general, GI50 refers to the concentration that inhibits growth by half. The low end stands for greater sensitivity of the cells, the high end for lower sensitivity of the cells. What is called melting point is the temperature, or range, at which the solid turns liquid.

One series relates to HGC2998 (colon cancer). As to the kind of experiment: Growth inhibition in human cancer cell line panel, HGC2998. Format: cell-based. As to conditions: 48 hr, SRB. The procedure: Compound IX-8 was evaluated growth inhibition activities against a panel of 39 human cancer cell lines including Human breast cancer MDA-MB-231 and the following human cancer cell lines were generously distributed by the National Cancer Institute (Frederick, Md.): lung cancer, NCI-H23, NCI-H226, NCI-H522, NCI-H460, A-549, DMS273 and DMS114; colon cancer, HGC-2998, KM-12, HT-29, HCT-15, and HCT-116; ovarian cancer, OVCAR-3, OVCAR-4, OVCAR-5, OVCAR-8, and SKOV-3; breast cancer, MCF-7; renal cancer, RXF-631L and ACHN; melanoma, LOX-IMVI; brain tumor, U251, SF-295, SF-539, SF-268, SNB-75, and SNB-78, and prostate cancer, DU-145 and PC-3. […]
The details of measuring cell growth inhibition are described elsewhere [Monks, A., Scudiero, D., Skehan, P., Shoemaker, R., Paull, K., Vistica, D., Hose, C., Langley, J., Cronise, P., Vaigro-Wolff, A., Gray-Goodrich, M., Campbell, H., Mayo, J., Boyd, M. Feasibility of a high-flux anticancer drug screen using a diverse panel of cultured human tumor cell lines. […] Then, the cell growth was determined according to the Sulforhodamine B assay, described by Skehan et al [Skehan, P., Storeng, R., Scudiero, D., Monks, A., McMahon, J., Vistica, D., Warren, J. T., Bokesch, H., Kenney, S., Boyd, M. R. New calorimetric cytotoxicity assay for anticancer-drug screening. […]

For `COc1ccc2[nH]c(-c3cccc(F)c3)c(C(=O)O)c(=O)c2c1` [IX-8, 3′-Fluoro-6-methoxy-2-phenyl-4-quinolone-3-carboxylic acid], the melting point was 268 °C (dec.). In the series with HGC2998 (colon cancer), this molecule gave a GI50 of 138 nM.

The record behind these values is patent publication US6897316B2, “Substituted 2-phenyl-4-quinolone-3-carboxylic acid compounds and their use as antitumor agents” (China Medical University, priority 2003, dated 2005).
